Measurements reported in patent US7903239B2, “Porous photonic crystal with light scattering domains and methods of synthesis and use thereof” (priority 2004, dated 2011).

How the values were obtained:
primary rat hepatocytes [1] = assay: Light scattering from hepatocytes seeded on a porous Si photonic crystal (CCD spectrometer, in incubator); type: cell-based; conditions: 50 μM Cd^2+
Method: Hepatocytes were isolated from 2-3 month old adult female Lewis rats by collagenase perfusion as previously described. Hepatocytes were then seeded on the polystyrene-coated porous silicon samples or on tissue-culture polystyrene dishes.
Hepatocytes were then seeded on the activated polystyrene-coated chip.
Cell seeding. Porous Si photonic crystal samples were sterilized in a 35 mm dish with 2 mL of 100% ethanol for 1 hour. Ethanol was removed and the samples were allowed to dry in a sterile laminar-flow hood. The samples and dish were washed twice with sterile water. To improve adhesion, 2 mL of a 0.1 mg/mL solution of rat-tail collagen (collagen I) was added to the dish, and the samples were incubated at 37° C. for one h. The collagen-coated samples were then washed once with sterile water, and once with growth media. Media for all experiments was DMEM with high glucose (Invitrogen), 10% fetal bovine serum, supplemented with 0.5 U/mL insulin, 7 ng/mL glucagon, 7.5 mg/mL hydrocortisone, 10 U/mL penicillin, and 10 mg/mL streptomycin. Hepatocytes were isolated from 2-3 month old adult female Lewis rats by collagenase perfusion as previously described. Less than one hour after isolation, 1.25×10^6 cells per dish were seeded in 2 mL of media for scattering experiments and 6×10^5 cells per dish for microscope experiments. As the porous Si samples were smaller than the dish, some cells settled and attached to the polystyrene surface. Unattached cells were removed after one hour and dishes were incubated at 37° C., 5% CO2 for 24 hours to allow spreading before the start of observation.
Reflectance spectra were collected using an Ocean Optics S-2000 CCD spectrometer fitted with a microscope objective lens coupled to either a bifurcated fiber optic cable (for specular measurements) or a single fiber optic cable (for scattering measurements). […]

rat hepatocyte cells = assay: MTT cell viability assay; type: cell-based; conditions: 50 μM Cd^2+, after ~10 h
hepatocytes [2] = assay: Reflectance microscopy of non-incubated hepatocytes on porous Si photonic crystal; type: cell-based, rat; conditions: 200 μM Cd^2+, eighty-five min after introduction, cells not incubated
Method: More particularly, measurement of light scattered from a monolayer of hepatocyte cells on a porous Si photonic crystal is used to measure changes in cellular morphology. Data were collected after hepatocytes were administered a toxic dose of aqueous cadmium chloride (200 μM). […] Upon exposure to Cd^2+, characteristic changes in morphology that accompany loss of viability, such as blebbing and increased granularity, are observed (FIG. 9b). The optical setup produces more dramatic images upon exposure to a toxic dose of Cd^2+. In this arrangement, cells appear with a color characteristic of the underlying photonic crystal, while the regions that are not covered with cells appear darker (FIG. 5a). After loss of viability, the cytoplasm appears brighter, leading to greater nuclear and cell boundary contrast (FIG. 5b).
Optical measurements. […] Images were processed on Metamorph and JImage. […] Pictures were obtained at time 0 and 85 minutes.

primary rat hepatocytes [3] = assay: Phase-contrast microscopy of hepatocytes on tissue-culture polystyrene plates; conditions: 50 μM Cd^2+
Method: Optical measurements. Images for cells seeded on porous silicon photonic crystals were collected using a reflectance microscope and a 10× LWD objective with on-normal and off-normal illumination using a white light source. Phase contrast images for cells seeded on tissue cultured polystyrene multi-well plates were obtained on a Nikon TE200 microscope with a 10× objective and captured with a camera. Images were processed on Metamorph and JImage. […] Cells were seeded on the porous Si chips at less than 100% coverage so that the porous silicon background could provide contrast. In order to follow the same subset of cells throughout the course of morphology changes for the Cd^2+ toxicity studies, the cells were not incubated while monitoring with the microscope. Rather, cells were placed on a chip and Cd^2+ concentration was adjusted to a final concentration of 200 μM. Pictures were obtained at time 0 and 85 minutes.

hepatocytes [4] = conditions: Cd^2+ in the 50-400 μM range; cited from earlier work

Compound: [Cl][Cd][Cl] [Cd^2+, cadmium chloride]
- time after which intensity of scattered light reaches a constant value (primary rat hepatocytes [1]): ~10 h
- time after which relative scattered intensity shows a significant increase (primary rat hepatocytes [1]): ~2 h
- time by which scattering changes precede first loss of viability in MTT stain (primary rat hepatocytes [1]): ~2 h
- viability according to MTT stain, % of the initial value (rat hepatocyte cells): ~50%
- hepatocytes that have lost viability (hepatocytes [2]): > 90%
- hepatocyte morphology by phase contrast (primary rat hepatocytes [3]): granular appearance increases substantially, even after 2 h
- time by which most cellular features become indistinguishable (primary rat hepatocytes [3]): ≤ 14 h
- time of cell damage (decrease in membrane and metabolic integrity) (hepatocytes [4]): within the first hour of exposure
